The values below come from patent US20170268001A1, “RNAS WITH TUMOR RADIO/CHEMO-SENSITIZING AND IMMUNOMODULATORY PROPERTIES AND METHODS OF THEIR PREPARATION AND APPLICATION” (THE UNIVERSITY OF CHICAGO, priority 2016, published 2017).

For data set [1], the system named is MC38 tumors. As to the kind of experiment: MC38 tumor growth after local radiation (20Gy). Type of data set: in vivo, mouse. The protocol:
1×10^6 MC38 tumor cells were subcutaneously injected into the flank of mice.
(§1) Tumor volumes were measured along three orthogonal axes (a, b, and c) and calculated as tumor volume=abc/2. Tumors were allowed to grow for 9-10 days and treated by local radiation (Deng et al., 2014). Briefly, the body was protected with a lead cover and the tumor was exposed, allowing local radiation. Tumors were irradiated using RS-2000 Biological Irradiator (RAD SOURCE) at the dose of 20Gy with 160 kV and 25 mA. For type I IFN blockade experiments, 200 μg anti-IFAR1 mAb was intratumorally injected on day 0 and 2 after radiation. For HMGB-1 blockade experiments, 200 μg anti-HMGB-1 mAb (clone 3B1, generated by inventors) was administered i.p. on day 0 and 3 after radiation. For CD8^+ T cell depletion experiments, 300 μg anti-CD8 mAb (Clone 2.43, BioXCell) was delivered 5 times by i.p. injection every three days starting one day before radiation. For exogenous IFN-β treatment experiments, 1×10^10 viral particles of Ad-IFN-β (Burnette, B., et al., The Efficacy of Radiotherapy Relies upon Induction of Type I Interferon-Dependent Innate and Adaptive Immunity, Cancer Res Apr. 1, 2011 71; 2488; (doi: 10.1158/0008-5472.CAN-10-2820)) were intratumorally administered on day 2 after radiation. Ad-null was used as negative control. […]

Data set [2] deals with MC38 tumors. As to the kind of experiment: ELISPOT of IFNγ-secreting tumor-specific CD8+ T cells from tumor DLNs. It counts as in vivo, mouse. As for the experimental part: as §1
Data set [3] addresses T1, RIG-I (DDX58), full-length (Homo sapiens) (UniProt O95786).
T1 sequence: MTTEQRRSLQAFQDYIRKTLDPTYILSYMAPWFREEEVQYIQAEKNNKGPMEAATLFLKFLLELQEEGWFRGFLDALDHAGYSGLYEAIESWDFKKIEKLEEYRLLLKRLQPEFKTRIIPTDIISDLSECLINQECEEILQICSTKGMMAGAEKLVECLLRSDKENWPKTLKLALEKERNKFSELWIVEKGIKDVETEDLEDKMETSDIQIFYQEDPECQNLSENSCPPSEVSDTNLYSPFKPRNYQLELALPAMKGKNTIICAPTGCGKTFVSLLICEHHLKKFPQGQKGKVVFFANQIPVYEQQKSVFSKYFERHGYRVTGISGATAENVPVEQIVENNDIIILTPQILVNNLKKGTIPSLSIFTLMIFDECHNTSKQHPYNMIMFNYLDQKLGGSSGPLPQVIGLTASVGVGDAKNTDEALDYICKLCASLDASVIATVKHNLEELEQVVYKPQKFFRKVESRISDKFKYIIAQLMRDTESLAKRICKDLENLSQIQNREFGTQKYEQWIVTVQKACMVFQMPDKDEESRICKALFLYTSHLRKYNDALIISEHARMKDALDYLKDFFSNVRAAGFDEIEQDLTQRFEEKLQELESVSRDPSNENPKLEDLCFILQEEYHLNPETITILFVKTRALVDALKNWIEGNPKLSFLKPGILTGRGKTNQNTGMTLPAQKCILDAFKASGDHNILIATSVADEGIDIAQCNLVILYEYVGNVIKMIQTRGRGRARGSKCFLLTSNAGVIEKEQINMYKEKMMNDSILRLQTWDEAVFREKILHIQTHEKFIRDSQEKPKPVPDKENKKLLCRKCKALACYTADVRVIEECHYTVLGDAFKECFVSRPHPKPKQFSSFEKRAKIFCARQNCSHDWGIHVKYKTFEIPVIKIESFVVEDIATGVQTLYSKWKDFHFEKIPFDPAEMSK
As to the kind of experiment: pulldown. The following applies: CLIP-qPCR, enrichment in RIG-I complexes from irradiated (6 Gy) vs non-irradiated HEK293; also enriched in HCT116. (In qPCR the cycle at which signal appears reflects the starting amount.)

In data set [4] the test system is RIG-I^−/− and WT MEFs; shRIG-I D54 and HCT116 tumor cells. Nature of the data set: Caspase 3/7 activity in response to chemotherapy drugs with or without RIG-I. Type of data set: cell-based. The settings on record: increasing doses of drug.
Data set [5] has as its system BMDCs. As to the kind of experiment: BMDC cross-priming of CD8+ T cells with irradiated tumor cells (ELISPOT). It counts as cell-based, mouse. The settings on record: IFN-β 10 ng/ml in co-culture; DMXAA 100 μg/ml, 3 h. The protocol:
Single-cell suspensions of bone marrow cells were obtained from C57BL/6J, STING^−/− and IRF3^−/− mice. Bone marrow from cGAS^−/− mice was kindly provided by Dr. Zhijian J. Chen of University of Texas Southwestern Medical Center, Dallas. The cells were placed in 10 cm petri dish and cultured in RPMI-1640 medium containing 10% fetal bovine serum ([…]), supplemented with 20 ng/ml GM-CSF. Fresh media with GM-CSF was added into culture on day 3. BMDCs (bone marrow-derived dendritic cells) were harvest for stimulation assay on day 7. 8×10^6 MC38-SIY^hi cells were plated into 10 cm cell culture dishes overnight, and then pretreated with 40Gy and incubated for 5 hours. BMDCs were added and co-cultured with MC38-SIY″ cells at the ratio of 1:1 in the presence of fresh GM-CSF for additional 8 hours. Subsequently purified CD11c^+ cells with EasySep™ Mouse CD11c Positive Selection Kit II ([…]) were incubated with isolated CD8^+ T cells from naive 2C mice for three days. For the bypassing assay, 10 ng/ml murine IFN-β was added in the co-culture of BMDCs and tumor cells, or 100 μg/ml DMXAA was added into isolated CD11c^+ cells with additional 3 h incubation. For IFN-β detection, BMDCs were co-cultured with tumor cells at the ratio of 1:1 for additional 8 hours, and 1×10^6 cells/ml purified CD11c^+ cells were seed into 96-well plates for 48 hours. […]

In data set [6] the target is T2, RIG-I (Homo sapiens, UniProt O95786).
T2 construct: HEK293 cells overexpressing either the full length RIG-I; host or cells: HEK293; HCT116 also for the qRT-PCR validation
T2 sequence (O95786 1-925): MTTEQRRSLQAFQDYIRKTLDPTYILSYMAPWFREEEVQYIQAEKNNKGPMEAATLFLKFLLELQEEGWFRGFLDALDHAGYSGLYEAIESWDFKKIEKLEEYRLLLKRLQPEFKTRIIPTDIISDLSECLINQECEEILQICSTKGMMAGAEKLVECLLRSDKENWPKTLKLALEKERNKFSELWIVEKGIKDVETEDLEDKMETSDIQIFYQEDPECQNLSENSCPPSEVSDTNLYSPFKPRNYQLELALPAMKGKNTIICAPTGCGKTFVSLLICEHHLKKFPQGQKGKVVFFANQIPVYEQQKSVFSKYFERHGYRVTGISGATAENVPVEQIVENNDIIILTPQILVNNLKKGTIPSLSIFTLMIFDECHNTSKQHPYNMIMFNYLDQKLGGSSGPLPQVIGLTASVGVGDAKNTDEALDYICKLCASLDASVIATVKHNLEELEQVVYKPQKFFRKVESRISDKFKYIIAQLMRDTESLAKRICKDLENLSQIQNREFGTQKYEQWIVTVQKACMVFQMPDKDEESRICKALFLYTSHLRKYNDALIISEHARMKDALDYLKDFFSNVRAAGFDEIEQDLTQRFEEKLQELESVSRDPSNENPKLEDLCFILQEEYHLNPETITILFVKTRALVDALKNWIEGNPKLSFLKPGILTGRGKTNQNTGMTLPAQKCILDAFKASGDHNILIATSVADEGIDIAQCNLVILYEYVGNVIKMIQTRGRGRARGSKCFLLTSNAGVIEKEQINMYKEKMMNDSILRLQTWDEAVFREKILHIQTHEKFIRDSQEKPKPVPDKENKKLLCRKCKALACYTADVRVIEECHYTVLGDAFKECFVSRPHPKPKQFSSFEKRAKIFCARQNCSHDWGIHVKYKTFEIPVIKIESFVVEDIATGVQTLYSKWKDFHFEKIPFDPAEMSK
As to the kind of experiment: HEK293 IFN-beta promoter dual luciferase reporter, RNA stimulation. It counts as cell-based. The following applies: 1 μg synthetic oligonucleotide, 24 hour stimulation. As for the experimental part:
We also used reporter HEK293 cells as simple technique to evaluate ability of the given RNA to stimulate IFN-beta production in preliminary in vitro experiments. Technically this was performed as follows: RNA stimulation of HEK293 IFN-beta reporter cells HEK293 cells were seeded in a 24-well plate overnight at a density of 1.5×10^5 cells/ml (75,000 cells/well). Cells were co-transfected with 100 ng of plasmid construct (pCAGGS empty vector, pCAGGS-RIG-I full-length, pCAGGS-RIG-I helicase-RD mutant construct, and […] mutant construct), together with 80 ng of a firefly luciferase reporter gene driven by an IFN-beta promoter and 20 ng of a Renilla luciferase (pRL-null) transfection control. Transfections were performed using a cationic lipid agent, Fugene HD (Promega), at a 3:1 lipid:DNA ratio. Twenty-four hours post-transfection, cells were then stimulated with 1 μg RNA* mixed with Fugene HD at 2:1 lipid: RNA ratio for 24 hours. 20 μl cell lysates were collected in opaque 96-well plates and analyzed for IFN-beta-luciferase and Renilla activity using a BioTek Synergy HT plate reader. The transfection efficiency across different wells was normalized by dividing the IFN-beta luciferase activity with the Renilla activity. All values were further normalized to the unstimulated controls in cells transfected with the empty vector. All pCAGGS RIG-I constructs used in this study were generous gifts from Dr. Jenish Patel and Dr. Adolfo Garcia-Sastre of The Icahn School of Medicine at Mount Sinai in New York City. Synthetic RNA comprised of various stem loop regions of the human U1 snRNA were purchased from IDT Oligos as reported in (Bernard et al., 2012). U1 stem loop I sequence: [NT] ID NO:15); U1 stem loop II sequence: [NT] ID NO:16); U1 stem loop III sequence: [NT] ID NO:17); U1 stem loop IV sequence: [NT] ID NO:18); U1 stem loops I and II sequence: [NT] ID NO:19); U1 stem loops II and III sequence: [NT] ID NO:20). In vitro transcribed U1 RNA stimulation: Full length U1 (pT7U1) plasmid was generously provided by Dr. Joan Steitz (Yale School of Medicine, Yale University). […]
On the technique in general: In a reporter assay the amount or activity of a reporter protein is the signal.

For the molecule `Nc1nc2c(ncn2[C@@H]2O[C@@H]3COP(=O)(O)O[C@H]4[C@@H](O)[C@H](n5cnc6c(N)ncnc65)O[C@@H]4COP(=O)(O)O[C@@H]2[C@@H]3O)c(=O)[nH]1` [2′3′-cGAMP, cyclic [G(2′,5′)pA(3′,5′)p]], the synergy with radiation result in data set [1] (STING^−/− mice) is given as “abrogated”. Besides, the “tumor burden, combination with radiation compared to either alone” value in data set [1] (WT mice, 10 μg intratumorally on day 2 and 6 after 20Gy) is listed as “effectively reduce tumor burden”. Also, in data set [2] (combination with radiation vs radiation or 2′3′-cGAMP alone, WT mice), the “number of tumor-specific IFN-γ-producing CD8+ T cells in DLNs” value is recorded as “significantly increased”. Also, the “antitumor CD8+ T cell response induced by combination with radiation” value in data set [2] (deficiency of STING in the host) is reported as “dampened”.

Consider U1 snRNA (endogenous), for which the binding signal in data set [3] worked out at 6 fold.

`COc1cccc2c1C(=O)c1c(O)c3c(c(O)c1C2=O)C[C@@](O)(C(=O)CO)C[C@@H]3O[C@H]1C[C@H](N)[C@H](O)[C@H](C)O1` [doxorubicin]: the “caspase 3/7 activity in response to drug treatment, RIG-I absent or depleted vs control cells” value in data set [4] was “reduced caspase 3/7 activity”.

As for `N.N.[Cl][Pt][Cl]` [cisplatin], the “caspase 3/7 activity in response to drug treatment, RIG-I absent or depleted vs control cells” value in data set [4] is “reduced caspase 3/7 activity”.

In the case of `Cc1ccc2c(=O)c3cccc(CC(=O)O)c3oc2c1C` [DMXAA], in data set [5], the “function of STING^−/− BMDCs (cross-priming)” value was “fails to rescue” and the “function of cGAS^−/− BMDCs (cross-priming)” value is “restored”.

B1: SL II+III: synthetic RNA of U1 stem loops II and III, SEQ ID NO:20 (nucleic acid)
chain: GGGCGAGGCTTATCCATTGCACTCCGGATGTGCTGACCCCTGCGATTTCCCCAAATGTGGGAAACTCGACTGC
modifications: listed as DNA, chemistry not given here
For the molecule B1, the “IFN-beta response (reporter activity in HEK293; IFN-b in MEF supernatant)” value in data set [6] is listed as “potent inducers of IFN-beta response”.

B2: SL I+II: synthetic RNA of U1 stem loops I and II, SEQ ID NO:19 (nucleic acid)
chain: GGGAGATACCATGATCACGAAGGTGGTTTTCCCAGGGCGAGGCTTATCCATTGCACTCCGGATGTGCTGACCCC
modifications: listed as DNA, chemistry not given here
Take B2: in data set [6], the “IFN-beta response (reporter activity in HEK293; IFN-b in MEF supernatant)” value is “potent inducers of IFN-beta response”.
